Data from the supplement of paper PMC3937590.
Each block holds one compound with its values, some of them ahead of it.

What was measured:
Experiment in all cases: -log10 GI50 (growth inhibition 50%) (-log10(M)); higher = more potent growth inhibition
[1] = system: 184A1
Summary of the method: (§1)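 The reported figure is the negative logarithm of GI50, defined as the molar concentration that produces the set level of growth inhibition. The logarithm is base 10. It comes from a Gompertz curve fitted by nonlinear least squares to 72-hour luminescence data from breast cancer cell lines given nine doses in 1:5 serial dilution, in triplicate, with a time-zero plate as reference. A < qualifier marks values equal to the top dose.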

[2] = system: 184B5
Summary of the method: as §1

[3] = system: 600MPE
Summary of the method: as §1

[4] = system: AU565
Summary of the method: as §1

[5] = system: BT20
Summary of the method: as §1

[6] = system: BT474
Summary of the method: as §1

[7] = system: BT483
Summary of the method: as §1

[8] = system: BT549
Summary of the method: as §1

[9] = system: CAMA1
Summary of the method: as §1

[10] = system: HCC1143
Summary of the method: as §1

[11] = system: HCC1187
Summary of the method: as §1

[12] = system: HCC1395
Summary of the method: as §1

[13] = system: HCC1419
Summary of the method: as §1

[14] = system: HCC1428
Summary of the method: as §1

[15] = system: HCC1569
Summary of the method: as §1

[16] = system: HCC1806
Summary of the method: as §1

[17] = system: HCC1937
Summary of the method: as §1

[18] = system: HCC1954
Summary of the method: as §1

[19] = system: HCC202
Summary of the method: as §1

[20] = system: HCC2185
Summary of the method: as §1

[21] = system: HCC3153
Summary of the method: as §1

[22] = system: HCC38
Summary of the method: as §1

[23] = system: HCC70
Summary of the method: as §1

[24] = system: HS578T
Summary of the method: as §1

[25] = system: LY2
Summary of the method: as §1

[26] = system: MCF10A
Summary of the method: as §1

[27] = system: MCF10F
Summary of the method: as §1

[28] = system: MCF12A
Summary of the method: as §1

[29] = system: MCF7
Summary of the method: as §1

[30] = system: MDAMB134VI
Summary of the method: as §1

[31] = system: MDAMB157
Summary of the method: as §1

[32] = system: MDAMB175VII
Summary of the method: as §1

[33] = system: MDAMB231
Summary of the method: as §1

[34] = system: MDAMB361
Summary of the method: as §1

[35] = system: MDAMB415
Summary of the method: as §1

[36] = system: MDAMB453
Summary of the method: as §1

[37] = system: MX1
Summary of the method: as §1

[38] = system: SKBR3
Summary of the method: as §1

[39] = system: SUM1315MO2
Summary of the method: as §1

[40] = system: SUM149PT
Summary of the method: as §1

[41] = system: SUM159PT
Summary of the method: as §1

[42] = system: SUM185PE
Summary of the method: as §1

[43] = system: SUM225CWN
Summary of the method: as §1

[44] = system: SUM229PE
Summary of the method: as §1

[45] = system: SUM52PE
Summary of the method: as §1

[46] = system: T47D_KBluc
Summary of the method: as §1

[47] = system: T47D
Summary of the method: as §1

[48] = system: UACC812
Summary of the method: as §1

[49] = system: ZR751
Summary of the method: as §1

[50] = system: ZR75B
Summary of the method: as §1

[51] = system: HBL100
Summary of the method: as §1

[52] = system: MDAMB436
Summary of the method: as §1

[53] = system: S1
Summary of the method: as §1

[54] = system: T4
Summary of the method: as §1

[55] = system: UACC893
Summary of the method: as §1

[56] = system: ZR7530
Summary of the method: as §1

-log10 GI50 [5]: < 2.53
-log10 GI50 [6]: < 2.53
-log10 GI50 [7]: < 2.53
-log10 GI50 [8]: < 2.53
-log10 GI50 [10]: < 2.53
-log10 GI50 [11]: < 2.53
-log10 GI50 [12]: < 2.53
-log10 GI50 [13]: < 2.53
-log10 GI50 [14]: < 2.53
-log10 GI50 [15]: < 2.53
-log10 GI50 [16]: 6.05
-log10 GI50 [17]: 3.17
-log10 GI50 [18]: < 2.53
-log10 GI50 [19]: 5.11
-log10 GI50 [20]: < 2.53
-log10 GI50 [21]: < 2.53
-log10 GI50 [22]: < 2.53
-log10 GI50 [29]: < 2.53
-log10 GI50 [30]: < 2.53
-log10 GI50 [31]: < 2.53
-log10 GI50 [32]: 8.1
-log10 GI50 [33]: < 2.53
-log10 GI50 [34]: 6.19
-log10 GI50 [35]: < 2.53
-log10 GI50 [36]: < 2.53
-log10 GI50 [38]: 5.02
-log10 GI50 [46]: < 2.53
-log10 GI50 [47]: < 2.53
SMILES: Nc1nc2[nH]cc(CCc3ccc(C(=O)N[C@@H](CCC(=O)O)C(=O)O)cc3)c2c(=O)[nH]1 [Pemetrexed]
-log10 GI50 [1]: 6.38
-log10 GI50 [2]: 6.44
-log10 GI50 [3]: < 2.53
-log10 GI50 [4]: < 2.53
-log10 GI50 [9]: 4.62
-log10 GI50 [23]: < 2.53
-log10 GI50 [24]: 4.59
-log10 GI50 [25]: 6.33
-log10 GI50 [26]: < 2.53
-log10 GI50 [27]: < 2.53
-log10 GI50 [28]: 6.72
-log10 GI50 [37]: < 2.53
-log10 GI50 [39]: < 2.53
-log10 GI50 [40]: < 2.53
-log10 GI50 [41]: < 2.53
-log10 GI50 [42]: < 2.53
-log10 GI50 [43]: < 2.53
-log10 GI50 [44]: 4.53
-log10 GI50 [45]: < 2.53
-log10 GI50 [48]: < 2.53
-log10 GI50 [49]: 5.05
-log10 GI50 [50]: < 2.53

-log10 GI50 [6]: 4.73
-log10 GI50 [7]: 4.56
-log10 GI50 [8]: 5.81
-log10 GI50 [10]: 4.7
-log10 GI50 [11]: 5.85
-log10 GI50 [14]: 5.09
-log10 GI50 [15]: 5.35
-log10 GI50 [16]: 5.45
-log10 GI50 [17]: 5.1
-log10 GI50 [18]: 5.95
-log10 GI50 [19]: 5.27
-log10 GI50 [20]: 5.54
-log10 GI50 [21]: 5.19
-log10 GI50 [29]: 5.31
-log10 GI50 [30]: 3.54
-log10 GI50 [31]: 4.8
-log10 GI50 [32]: 5.44
-log10 GI50 [33]: 4.9
-log10 GI50 [34]: 5.46
-log10 GI50 [35]: 4.53
-log10 GI50 [52]: 4.46
-log10 GI50 [36]: 5.19
-log10 GI50 [38]: 5.7
-log10 GI50 [47]: 5.55
SMILES: O=C(O)C(=O)O.[NH-][C@@H]1CCCC[C@H]1[NH-].[Pt+2] [Oxaliplatin]
-log10 GI50 [1]: 5.89
-log10 GI50 [2]: 5.57
-log10 GI50 [51]: 5.65
-log10 GI50 [23]: 5.38
-log10 GI50 [24]: 4.74
-log10 GI50 [25]: 5.45
-log10 GI50 [26]: 5.41
-log10 GI50 [27]: 5.35
-log10 GI50 [28]: 5.75
-log10 GI50 [53]: 4.68
-log10 GI50 [39]: 4.86
-log10 GI50 [40]: 5.83
-log10 GI50 [41]: 5.6
-log10 GI50 [42]: 4.39
-log10 GI50 [44]: 5.72
-log10 GI50 [45]: 5.46
-log10 GI50 [54]: 5.21
-log10 GI50 [48]: 5.85
-log10 GI50 [55]: 3.83
-log10 GI50 [49]: 5.61
-log10 GI50 [56]: < 3.2
-log10 GI50 [50]: 5.52

-log10 GI50 [5]: 8.45
-log10 GI50 [6]: 8.42
-log10 GI50 [7]: 5.27
-log10 GI50 [8]: 8.26
-log10 GI50 [10]: 8.01
-log10 GI50 [11]: 8.66
-log10 GI50 [12]: 7.96
-log10 GI50 [13]: 4.93
-log10 GI50 [14]: 7.23
-log10 GI50 [15]: 6.55
-log10 GI50 [16]: 8.36
-log10 GI50 [17]: 6.76
-log10 GI50 [18]: 8.71
-log10 GI50 [19]: 6.37
-log10 GI50 [20]: 8.32
-log10 GI50 [21]: 8.21
-log10 GI50 [22]: 8.55
-log10 GI50 [29]: 9.44
-log10 GI50 [30]: 9
-log10 GI50 [31]: 8.33
-log10 GI50 [32]: 7.03
-log10 GI50 [33]: 9.34
-log10 GI50 [34]: 8.64
-log10 GI50 [35]: 8.41
-log10 GI50 [36]: 8.34
-log10 GI50 [38]: 7.99
-log10 GI50 [46]: 7.61
-log10 GI50 [47]: 8.26
SMILES: C/C(=C\c1csc(C)n1)[C@@H]1C[C@@H]2O[C@]2(C)CCC[C@H](C)[C@H](O)[C@@H](C)C(=O)C(C)(C)[C@@H](O)CC(=O)N1 [Ixabepilone]
-log10 GI50 [1]: 6.67
-log10 GI50 [2]: 6.76
-log10 GI50 [3]: 8.53
-log10 GI50 [4]: 8.42
-log10 GI50 [9]: 9.02
-log10 GI50 [23]: 8.85
-log10 GI50 [24]: 8.62
-log10 GI50 [25]: 8.22
-log10 GI50 [26]: 8.1
-log10 GI50 [27]: 8.08
-log10 GI50 [28]: 8.13
-log10 GI50 [37]: 8.53
-log10 GI50 [39]: 8.22
-log10 GI50 [40]: 8.26
-log10 GI50 [41]: 8.16
-log10 GI50 [42]: 8.07
-log10 GI50 [43]: 5.96
-log10 GI50 [44]: 8.72
-log10 GI50 [45]: 9.53
-log10 GI50 [48]: 5.24
-log10 GI50 [49]: 6.68
-log10 GI50 [50]: 6.95
